Key:
Assay in all cases: KinaseProfiler off-target kinase profiling
Assay type in all cases: biochemical
Details in all cases: 10 μM, ATP near Km
ARK5 = target: T1, ARK5 (Homo sapiens, UniProt O60285)
T1 construct: purchased Millipore, Inc. (KinaseProfiler service)
Procedure: (§1) A representative compound of the invention (Example 48) was tested for off-target kinase activity at a concentration of 10 μM by Millipore, Inc. in their KinaseProfiler™ service against all the kinases available in their full kinase panel. The compound was run in duplicate at a concentration of ATP near the Km for each individual kinase according to Millipore's specifications. The results are shown in Table B. Data are reported as percent of control (POC) and are the average of the two replicates.

TAO1 = target: T2, TAO1 (Homo sapiens, UniProt Q7L7X3)
T2 construct: purchased Millipore, Inc. (KinaseProfiler service)
Procedure: as §1

JNK3 = target: T3, JNK3 (Homo sapiens, UniProt P53779)
T3 construct: purchased Millipore, Inc. (KinaseProfiler service)
Procedure: as §1

p38alpha = target: T4, p38alpha (Homo sapiens, UniProt Q16539)
T4 construct: purchased Millipore, Inc. (KinaseProfiler service)
Procedure: as §1

Axl = target: T5, Axl (Homo sapiens, UniProt P30530)
T5 construct: purchased Millipore, Inc. (KinaseProfiler service)
Procedure: as §1

Rsk4 = target: T6, Rsk4 (Homo sapiens, UniProt Q9UK32)
T6 construct: purchased Millipore, Inc. (KinaseProfiler service)
Procedure: as §1

MINK = target: T7, MINK (Homo sapiens, UniProt Q8N4C8)
T7 construct: purchased Millipore, Inc. (KinaseProfiler service)
Procedure: as §1

PRK2 = target: T8, PRK2 (Homo sapiens, UniProt Q16513)
T8 construct: purchased Millipore, Inc. (KinaseProfiler service)
Procedure: as §1

IGF-1R Activated = target: T9, IGF-1R Activated (Homo sapiens, UniProt P08069)
T9 construct: purchased Millipore, Inc. (KinaseProfiler service)
Procedure: as §1

Ret = target: T10, Ret (Homo sapiens, UniProt P07949)
T10 construct: purchased Millipore, Inc. (KinaseProfiler service)
Procedure: as §1

ALK = target: T11, ALK (Homo sapiens, UniProt Q9UM73)
T11 construct: purchased Millipore, Inc. (KinaseProfiler service)
Procedure: as §1

FAK = target: T12, FAK (Homo sapiens, UniProt Q05397)
T12 construct: purchased Millipore, Inc. (KinaseProfiler service)
Procedure: as §1

PhKgamma2 = target: T13, PhKgamma2 (Homo sapiens, UniProt P15735)
T13 construct: purchased Millipore, Inc. (KinaseProfiler service)
Procedure: as §1

Syk = target: T14, Syk (Homo sapiens, UniProt P43405)
T14 construct: purchased Millipore, Inc. (KinaseProfiler service)
Procedure: as §1

STK33 = target: T15, STK33 (Homo sapiens, UniProt Q9BYT3)
T15 construct: purchased Millipore, Inc. (KinaseProfiler service)
Procedure: as §1

FGFR1 = target: T16, FGFR1 (Homo sapiens, UniProt P11362)
T16 construct: purchased Millipore, Inc. (KinaseProfiler service)
Procedure: as §1

PTK6 = target: T17, PTK6 (Homo sapiens, UniProt Q13882)
T17 construct: purchased Millipore, Inc. (KinaseProfiler service)
Procedure: as §1

Abl2 = target: T18, Abl2 (Homo sapiens, UniProt P42684)
T18 construct: purchased Millipore, Inc. (KinaseProfiler service)
Procedure: as §1

EphA5 = target: T19, EphA5 (Homo sapiens, UniProt P54756)
T19 construct: purchased Millipore, Inc. (KinaseProfiler service)
Procedure: as §1

SRPK1 = target: T20, SRPK1 (Homo sapiens, UniProt Q96SB4)
T20 construct: purchased Millipore, Inc. (KinaseProfiler service)
Procedure: as §1

HIPK3 = target: T21, HIPK3 (Homo sapiens, UniProt Q9H422)
T21 construct: purchased Millipore, Inc. (KinaseProfiler service)
Procedure: as §1

PDGFRalpha = target: T22, PDGFRalpha (Homo sapiens, UniProt P16234)
T22 construct: purchased Millipore, Inc. (KinaseProfiler service)
Procedure: as §1

GRK5 = target: T23, GRK5 (Homo sapiens, UniProt P34947)
T23 construct: purchased Millipore, Inc. (KinaseProfiler service)
Procedure: as §1

MRCKbeta = target: T24, MRCKbeta (Homo sapiens, UniProt Q9Y5S2)
T24 construct: purchased Millipore, Inc. (KinaseProfiler service)
Procedure: as §1

EphA7 = target: T25, EphA7 (Homo sapiens, UniProt Q15375)
T25 construct: purchased Millipore, Inc. (KinaseProfiler service)
Procedure: as §1

BLK_m = target: T26, BLK_m (Mus musculus, UniProt P16277)
T26 construct: purchased Millipore, Inc. (KinaseProfiler service)
Procedure: as §1

PrKX = target: T27, PrKX (Homo sapiens, UniProt P51817)
T27 construct: purchased Millipore, Inc. (KinaseProfiler service)
Procedure: as §1

TrkB = target: T28, TrkB (Homo sapiens, UniProt Q16620)
T28 construct: purchased Millipore, Inc. (KinaseProfiler service)
Procedure: as §1

CLK3 = target: T29, CLK3 (Homo sapiens, UniProt P49761)
T29 construct: purchased Millipore, Inc. (KinaseProfiler service)
Procedure: as §1

GRK7 = target: T30, GRK7 (Homo sapiens, UniProt Q8WTQ7)
T30 construct: purchased Millipore, Inc. (KinaseProfiler service)
Procedure: as §1

JNK2alpha2 = target: T31, JNK2alpha2 (Homo sapiens, UniProt P45984)
T31 construct: purchased Millipore, Inc. (KinaseProfiler service)
Procedure: as §1

Txk = target: T32, Txk (Homo sapiens, UniProt P42681)
T32 construct: purchased Millipore, Inc. (KinaseProfiler service)
Procedure: as §1

GRK6 = target: T33, GRK6 (Homo sapiens, UniProt P43250)
T33 construct: purchased Millipore, Inc. (KinaseProfiler service)
Procedure: as §1

Hck = target: T34, Hck (Homo sapiens, UniProt P08631)
T34 construct: purchased Millipore, Inc. (KinaseProfiler service)
Procedure: as §1

CDK5/p35 = target: T35, CDK5/p35 (Homo sapiens, UniProt Q00535)
T35 construct: purchased Millipore, Inc. (KinaseProfiler service)
Procedure: as §1

CSK = target: T36, CSK (Homo sapiens, UniProt P41240)
T36 construct: purchased Millipore, Inc. (KinaseProfiler service)
Procedure: as §1

MARK2 = target: T37, MARK2 (Homo sapiens, UniProt Q7KZI7)
T37 construct: purchased Millipore, Inc. (KinaseProfiler service)
Procedure: as §1

MAP3K5 = target: T38, MAP3K5 (Homo sapiens, UniProt Q99683)
T38 construct: purchased Millipore, Inc. (KinaseProfiler service)
Procedure: as §1

MST2 = target: T39, MST2 (Homo sapiens, UniProt Q13188)
T39 construct: purchased Millipore, Inc. (KinaseProfiler service)
Procedure: as §1

PKCtheta = target: T40, PKCtheta (Homo sapiens, UniProt Q04759)
T40 construct: purchased Millipore, Inc. (KinaseProfiler service)
Procedure: as §1

Plk3 = target: T41, Plk3 (Homo sapiens, UniProt Q9H4B4)
T41 construct: purchased Millipore, Inc. (KinaseProfiler service)
Procedure: as §1

T10 sequence (P07949 29-1114): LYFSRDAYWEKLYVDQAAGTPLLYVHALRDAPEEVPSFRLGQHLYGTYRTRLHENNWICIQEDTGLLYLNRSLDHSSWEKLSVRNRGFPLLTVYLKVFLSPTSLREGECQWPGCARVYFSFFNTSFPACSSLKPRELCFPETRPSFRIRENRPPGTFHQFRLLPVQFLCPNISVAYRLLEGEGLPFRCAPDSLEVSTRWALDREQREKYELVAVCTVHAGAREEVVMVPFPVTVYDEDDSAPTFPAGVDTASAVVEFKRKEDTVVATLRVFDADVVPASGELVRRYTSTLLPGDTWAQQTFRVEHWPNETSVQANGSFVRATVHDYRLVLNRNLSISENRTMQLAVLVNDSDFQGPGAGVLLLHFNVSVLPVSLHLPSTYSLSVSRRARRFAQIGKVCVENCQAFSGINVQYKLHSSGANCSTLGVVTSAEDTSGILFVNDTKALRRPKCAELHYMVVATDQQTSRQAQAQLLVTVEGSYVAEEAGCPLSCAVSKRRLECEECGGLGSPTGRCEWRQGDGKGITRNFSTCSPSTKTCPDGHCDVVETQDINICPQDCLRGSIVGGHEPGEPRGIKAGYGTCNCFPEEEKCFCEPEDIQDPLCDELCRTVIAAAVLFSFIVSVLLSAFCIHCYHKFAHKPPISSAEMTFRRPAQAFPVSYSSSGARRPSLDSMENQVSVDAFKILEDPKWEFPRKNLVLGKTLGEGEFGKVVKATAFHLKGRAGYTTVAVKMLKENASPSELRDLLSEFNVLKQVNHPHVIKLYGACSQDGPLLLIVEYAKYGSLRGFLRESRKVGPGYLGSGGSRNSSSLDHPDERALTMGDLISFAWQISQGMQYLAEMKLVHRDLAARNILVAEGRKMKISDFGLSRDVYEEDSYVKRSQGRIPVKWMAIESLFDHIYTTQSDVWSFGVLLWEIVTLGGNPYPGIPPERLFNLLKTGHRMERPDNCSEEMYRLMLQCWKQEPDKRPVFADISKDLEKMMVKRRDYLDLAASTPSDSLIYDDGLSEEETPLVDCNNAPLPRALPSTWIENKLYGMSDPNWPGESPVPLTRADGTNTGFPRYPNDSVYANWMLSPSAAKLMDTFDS
T3 sequence (P53779 whole entry): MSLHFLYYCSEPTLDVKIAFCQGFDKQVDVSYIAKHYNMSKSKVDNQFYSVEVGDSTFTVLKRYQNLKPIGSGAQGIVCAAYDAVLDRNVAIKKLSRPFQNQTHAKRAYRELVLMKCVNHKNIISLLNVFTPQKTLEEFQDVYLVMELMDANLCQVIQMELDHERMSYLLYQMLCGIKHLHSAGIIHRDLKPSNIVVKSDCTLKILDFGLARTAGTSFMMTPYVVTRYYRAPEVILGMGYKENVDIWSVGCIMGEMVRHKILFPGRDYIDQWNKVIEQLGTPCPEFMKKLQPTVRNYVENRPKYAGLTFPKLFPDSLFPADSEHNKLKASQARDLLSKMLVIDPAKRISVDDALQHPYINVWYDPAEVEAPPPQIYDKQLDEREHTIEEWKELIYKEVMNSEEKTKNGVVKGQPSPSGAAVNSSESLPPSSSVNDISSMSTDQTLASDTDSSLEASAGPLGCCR
T5 sequence (P30530 26-894): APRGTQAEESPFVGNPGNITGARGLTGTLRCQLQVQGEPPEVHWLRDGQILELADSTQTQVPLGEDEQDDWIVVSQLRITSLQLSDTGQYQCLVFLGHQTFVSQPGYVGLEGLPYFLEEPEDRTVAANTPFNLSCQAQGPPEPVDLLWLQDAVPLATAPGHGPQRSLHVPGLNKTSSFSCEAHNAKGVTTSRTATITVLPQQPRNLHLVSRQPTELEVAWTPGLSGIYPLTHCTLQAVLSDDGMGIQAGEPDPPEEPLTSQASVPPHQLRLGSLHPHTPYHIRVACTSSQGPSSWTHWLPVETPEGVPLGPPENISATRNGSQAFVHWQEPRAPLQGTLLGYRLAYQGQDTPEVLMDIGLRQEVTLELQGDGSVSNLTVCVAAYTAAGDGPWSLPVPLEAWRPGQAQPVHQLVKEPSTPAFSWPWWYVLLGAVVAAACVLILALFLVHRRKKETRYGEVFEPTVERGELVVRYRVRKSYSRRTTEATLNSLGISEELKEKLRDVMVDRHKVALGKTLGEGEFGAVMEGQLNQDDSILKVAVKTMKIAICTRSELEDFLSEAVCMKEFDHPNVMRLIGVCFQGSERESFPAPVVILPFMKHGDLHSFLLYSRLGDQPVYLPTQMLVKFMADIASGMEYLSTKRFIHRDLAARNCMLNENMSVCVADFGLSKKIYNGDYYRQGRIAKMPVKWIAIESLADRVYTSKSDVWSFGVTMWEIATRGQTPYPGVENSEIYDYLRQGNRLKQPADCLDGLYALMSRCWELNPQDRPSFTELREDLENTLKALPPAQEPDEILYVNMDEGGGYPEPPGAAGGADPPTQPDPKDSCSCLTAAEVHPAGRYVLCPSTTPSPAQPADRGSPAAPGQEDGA
T18 sequence (P42684 whole entry): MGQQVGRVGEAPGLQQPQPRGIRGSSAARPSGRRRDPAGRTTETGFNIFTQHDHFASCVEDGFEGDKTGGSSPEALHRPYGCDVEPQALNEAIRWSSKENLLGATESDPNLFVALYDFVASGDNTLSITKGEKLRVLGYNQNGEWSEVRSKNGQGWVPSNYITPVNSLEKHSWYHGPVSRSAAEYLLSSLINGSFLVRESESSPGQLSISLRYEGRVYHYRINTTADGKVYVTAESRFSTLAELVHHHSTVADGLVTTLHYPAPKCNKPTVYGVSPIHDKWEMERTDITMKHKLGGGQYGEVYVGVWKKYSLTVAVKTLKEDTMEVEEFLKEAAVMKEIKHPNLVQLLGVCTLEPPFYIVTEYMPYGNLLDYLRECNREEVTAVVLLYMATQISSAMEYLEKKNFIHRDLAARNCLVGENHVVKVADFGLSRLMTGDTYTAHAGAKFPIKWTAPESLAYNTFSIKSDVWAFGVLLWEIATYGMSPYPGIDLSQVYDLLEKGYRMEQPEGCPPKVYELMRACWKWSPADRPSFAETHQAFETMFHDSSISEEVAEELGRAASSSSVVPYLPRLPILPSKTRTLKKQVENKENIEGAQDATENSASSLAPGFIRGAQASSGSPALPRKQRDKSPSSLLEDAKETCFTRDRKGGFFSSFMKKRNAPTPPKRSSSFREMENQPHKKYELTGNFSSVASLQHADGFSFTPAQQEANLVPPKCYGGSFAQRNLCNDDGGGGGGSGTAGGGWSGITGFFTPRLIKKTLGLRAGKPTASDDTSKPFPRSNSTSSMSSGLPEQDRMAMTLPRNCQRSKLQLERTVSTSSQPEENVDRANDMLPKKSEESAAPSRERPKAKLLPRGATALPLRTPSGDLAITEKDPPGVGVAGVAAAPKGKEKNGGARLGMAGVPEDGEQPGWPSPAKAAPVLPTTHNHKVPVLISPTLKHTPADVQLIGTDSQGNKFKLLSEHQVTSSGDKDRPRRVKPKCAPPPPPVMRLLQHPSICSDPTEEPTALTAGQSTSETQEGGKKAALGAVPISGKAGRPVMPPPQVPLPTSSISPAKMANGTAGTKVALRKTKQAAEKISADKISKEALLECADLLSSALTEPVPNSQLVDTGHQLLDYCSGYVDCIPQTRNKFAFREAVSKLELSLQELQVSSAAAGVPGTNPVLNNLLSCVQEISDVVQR
T40 sequence (Q04759 whole entry): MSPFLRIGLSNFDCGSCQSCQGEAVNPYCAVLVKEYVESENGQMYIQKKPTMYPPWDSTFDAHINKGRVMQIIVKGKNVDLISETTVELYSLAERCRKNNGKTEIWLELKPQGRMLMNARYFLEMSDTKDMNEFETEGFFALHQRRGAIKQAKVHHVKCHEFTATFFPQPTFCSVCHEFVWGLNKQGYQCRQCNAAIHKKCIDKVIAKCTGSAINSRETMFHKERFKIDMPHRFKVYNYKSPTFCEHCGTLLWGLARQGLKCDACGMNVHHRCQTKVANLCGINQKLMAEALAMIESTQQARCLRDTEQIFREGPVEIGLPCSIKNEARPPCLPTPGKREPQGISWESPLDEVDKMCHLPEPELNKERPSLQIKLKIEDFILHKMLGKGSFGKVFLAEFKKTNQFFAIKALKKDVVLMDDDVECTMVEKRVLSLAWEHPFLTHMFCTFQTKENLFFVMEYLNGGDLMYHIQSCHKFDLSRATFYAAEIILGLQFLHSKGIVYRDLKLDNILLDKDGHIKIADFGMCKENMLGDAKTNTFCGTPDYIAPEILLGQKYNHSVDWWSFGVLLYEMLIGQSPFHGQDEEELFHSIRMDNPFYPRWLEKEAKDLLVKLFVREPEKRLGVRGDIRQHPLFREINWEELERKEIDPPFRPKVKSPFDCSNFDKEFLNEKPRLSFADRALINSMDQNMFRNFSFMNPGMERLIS
T32 sequence (P42681 whole entry): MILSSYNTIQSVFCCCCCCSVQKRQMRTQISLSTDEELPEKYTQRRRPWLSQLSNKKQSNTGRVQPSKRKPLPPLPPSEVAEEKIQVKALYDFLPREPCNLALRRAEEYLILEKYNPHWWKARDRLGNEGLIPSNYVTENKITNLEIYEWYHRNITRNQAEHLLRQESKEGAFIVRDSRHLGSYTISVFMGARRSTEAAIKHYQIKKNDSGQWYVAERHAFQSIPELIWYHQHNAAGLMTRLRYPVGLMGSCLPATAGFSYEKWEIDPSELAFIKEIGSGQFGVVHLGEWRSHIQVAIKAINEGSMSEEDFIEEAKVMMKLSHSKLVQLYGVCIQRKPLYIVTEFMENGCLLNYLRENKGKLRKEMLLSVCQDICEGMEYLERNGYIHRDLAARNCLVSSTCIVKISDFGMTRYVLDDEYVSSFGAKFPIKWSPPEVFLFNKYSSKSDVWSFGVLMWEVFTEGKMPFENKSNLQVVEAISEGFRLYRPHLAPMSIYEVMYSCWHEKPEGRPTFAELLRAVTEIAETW

Avg POC (ARK5): 106% of control
Avg POC (TAO1): 101% of control
Avg POC (JNK3): 106% of control
Avg POC (p38alpha): 108% of control
Avg POC (Axl): 113% of control
Avg POC (Rsk4): 116% of control
Avg POC (MINK): 117% of control
Avg POC (PRK2): 111% of control
Avg POC (IGF-1R Activated): 102% of control
Avg POC (Ret): 125.5% of control
Avg POC (ALK): 125% of control
Avg POC (FAK): 107.5% of control
Avg POC (PhKgamma2): 110% of control
Avg POC (Syk): 86.5% of control
Avg POC (STK33): 110% of control
Avg POC (FGFR1): 98% of control
Avg POC (PTK6): 99.5% of control
Avg POC (Abl2): 124.5% of control
Avg POC (EphA5): 107% of control
Avg POC (SRPK1): 115.5% of control
Avg POC (HIPK3): 82% of control
Avg POC (PDGFRalpha): 104.5% of control
Avg POC (GRK5): 106.5% of control
Avg POC (MRCKbeta): 140.5% of control
Avg POC (EphA7): 101% of control
Avg POC (BLK_m): 107% of control
Avg POC (PrKX): 122% of control
Avg POC (TrkB): 9% of control
Avg POC (CLK3): 101.5% of control
Avg POC (GRK7): 122% of control
Avg POC (JNK2alpha2): 93.5% of control
Avg POC (Txk): 85.5% of control
Avg POC (GRK6): 101% of control
Avg POC (Hck): 115.5% of control
Avg POC (CDK5/p35): 109.5% of control
Avg POC (CSK): 108% of control
Avg POC (MARK2): 93% of control
Avg POC (MAP3K5): 102.5% of control
Avg POC (MST2): 109.5% of control
Avg POC (PKCtheta): 108.5% of control
Avg POC (Plk3): 113.5% of control
SMILES: COCCN1C[C@@H](NC(=O)Nc2sc(C(C)C)nc2-c2ccccc2)[C@H](c2ccccc2)C1 [Example 48, 1-(2-isopropyl-4-phenylthiazol-5-yl)-3-((3S,4R)-1-(2-methoxyethyl)-4-phenylpyrrolidin-3-yl)urea]

From patent US9828360B2 (Array BioPharma Inc., priority 2012, dated 2017)
